Laboratory results taken from US6395762B1, “Phenyl amino squarate and thiadiazole dioxide beta-3 adrenergic receptor agonists” (American Home Products Corporation, priority 2000, dated 2002).

Target: T1, human β3-AR (Homo sapiens, UniProt P13945)
T1 construct: Full-length β3-AR clones (402 amino acids) containing the last 6 amino acids of hβ3-AR; expressed in transfected cells; host or cells: CHO (Chinese hamster ovary) cells
Assay: cAMP accumulation (SPA) in CHO cells transfected with human β3-AR
Type: cell-based
Details: CHO cells transfected with human β3-AR; for EC50: cAMP by SPA, 30 min at 37° C., 10^−9 M to 10^−5 M, read-out: EC50(β3); for IA(β3): maximal response of compound relative to maximal response of isoproterenol at 10^−5 M
Description: The ability of the compounds of this invention to treat or inhibit disorders related to insulin resistance or hyperglycemia was confirmed with representative compounds of this invention in the following standard pharmacological test procedures, which measured the binding selectivity of the β1-, β2-, and β3-AR. Binding to the receptors was measured in Chinese Hamster ovary (CHO) cells that were transfected with β1-, β2-, and β3-AR's. The following briefly summarizes the procedures used and results obtained.
Cloning of Human β3-AR Genomic DNA: cDNA was constructed by ligating four polymerase chain reaction (PCR) products using the following primers: an ATG-Narl fragment, sense primer 5′-[…]3′ and anti-sense primer 5′[…]3′; a Narl-Accl fragment, 5′[…]3′ as sense and 5′[…]3′ as anti-sense primer; an Accli—Styl fragment, sense primer 5′[…]3′ and anti-sense primer 5′[…]3′ and a Styl-TAG fragment, with sense primer 5′ […]3′ and anti-sense primer 5′ […]3′ . The corresponding primer sequences are described in Mantzoros, C. S., et.al., Diabetes, 1996, 45, 909-914. The four fragments are ligated into a pUC 18 plasmid (Gibco-BRL) and sequenced. Full-length β3-AR clones (402 amino acids) containing the last 6 amino acids of hβ3-AR are prepared with the β3-βARpcDNA3 from ATTC.
Binding Procedure: Clones expressing receptor levels of 70 to 110 fmoles/mg protein were used in the test procedures. CHO cells were grown in 24-well tissue culture plates in Dulbecco's Modified Eagle Media with 10% fetal bovine serum, MEM non-essential amino acids, Penicillin—Streptomycin and Geneticin. On the day of test procedure, growth medium was replaced with preincubation media (Dulbecco's Modified Eagle Media) and incubated for 30 minutes at 37° C. Pre-incubation medium was replaced with 0.2 ml treatment medium containing DMEM media containing 250 μM IBMX (isobutyl-1-methylxantine) plus 1 mM ascorbic acid with test compound dissolved in DMSO. Test compounds were assayed over a concentration range of 10^−9 M to 10^−5 M for β3-AR transfected cells and 10^−8 to 10^−4 M for β1-AR and β2-AR transfected cells. Isoproterenol (10^−5 M) was used as an internal standard for comparison of activity. Cells were incubated at 37° C. on a rocker for 30 min with the β3-AR transfected cells and 15 min with β1-AR and β2-AR transfected cells. Incubation was stopped by the addition of 0.2N HCl and the acid was neutralized with 2.5N NaOH. The plates, containing the cells and neutralized media, were stored at −20° C. until ready to test for cAMP using the SPA test kit (Amersham).
Data Analysis and Results: Data collected from the SPA test procedure were analyzed as percent of the maximal isoproterenol response at 10^−5 M. Activity curves were plotted using the SAS statistical and graphics software.

T1 sequence (P13945 whole entry): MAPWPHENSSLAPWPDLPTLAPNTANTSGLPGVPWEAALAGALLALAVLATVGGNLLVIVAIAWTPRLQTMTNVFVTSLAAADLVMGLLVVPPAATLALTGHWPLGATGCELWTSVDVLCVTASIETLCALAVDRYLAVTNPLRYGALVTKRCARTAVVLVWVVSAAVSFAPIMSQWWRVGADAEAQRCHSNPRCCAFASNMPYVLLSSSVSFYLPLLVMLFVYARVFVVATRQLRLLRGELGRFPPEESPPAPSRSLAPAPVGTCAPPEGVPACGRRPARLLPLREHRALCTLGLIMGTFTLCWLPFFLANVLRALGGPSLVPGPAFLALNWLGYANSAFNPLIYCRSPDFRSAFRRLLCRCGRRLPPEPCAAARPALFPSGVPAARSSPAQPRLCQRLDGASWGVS

Row | Compound | EC50 [nM] | IA(β3)
1 | CCCCCCCCNC1=NS(=O)(=O)N=C1Nc1ccc(CC(C)NCC(O)c2cccc(Cl)c2)cc1 [Compound 3, (1R)-1-(3-Chloro-phenyl)-2-{1-methyl-2-[4-(octylamino-1,1-dioxo-1H-1-.lambda(6).-1,2,5]thiadiazol-3-ylamino)-phenyl]-ethylamino}-ethanol] | 38 | 0.86
2 | (2S)-1-(4-Benzyloxy-phenoxy)-3-{2-[4-(4-decylamino-1,1-dioxo-1H-1-. lambda(6).-[1,2,5]thiadiazol-3-ylamino)-phenyl]-1-methyl-ethylamino}-propan-2-ol [Compound 18] | – | 0.46
3 | CCCCCCCCNC1=NS(=O)(=O)N=C1Nc1ccc(CC(C)NC[C@H](O)COc2ccc(OCc3ccccc3)cc2)cc1 (stereo partly drawn) [Compound 11, (2S)-1-(4-Benzyloxy-phenoxy)-3-{1-methyl-2-[4-(4-octylamino-1,1-dioxo-1H-1.lambda(6).-[1,2,5]thiadiazol-3-ylamino)-phenyl]-ethylamino}-propan-2-ol] | – | 0.29
4 | CCCCCCNC(=O)Nc1ccc(C2(CNC3=NS(=O)(=O)N=C3Nc3ccc(CC(C)(C)NC[C@@H](O)COc4ccc(OCc5ccccc5)cc4)cc3)CCCC2)cc1 [8 (step H), 1-[4-(1-{[4-(4-{2-[(2R)-3-(4-Benzyloxy-phenoxy)-2-hydroxy-propylamino]-2-methyl-propyl}-phenylamino)-1 1-dioxo-1H-1.lambda(6).-[1,2,5]thiadiazol-3-ylamino]-methyl}-cyclopentyl)-phenyl]-3-hexyl-urea] | 60 | 0.40
5 | CC(Cc1ccc(NC2=NS(=O)(=O)N=C2NCC2(c3ccccc3)CCCC2)cc1)NC[C@H](O)COc1ccc(O)cc1 (stereo partly drawn) [Compound 31, 4-{(2S)-3-[2-(4-{1,1-Dioxo-4-[(1-phenyl-cyclopentylmethyl)-amino]-1H-1(lambda(6))-[1,2,5]thiadiazol-3-ylamino}-phenyl)-1-methyl-ethylamino]-2-hydroxy-propoxy}-phenol] | 5 | 1.0
6 | CCOC(=O)CCCNC1=NS(=O)(=O)N=C1Nc1ccc(CC(C)NC[C@H](O)COc2ccc(O)cc2)cc1 (stereo partly drawn) [Compound 33, 4-{4-(4-{2-[(2S)-2-Hydroxy-3-(4-hydroxy-phenoxy)-propylamino]-propyl}-phenylamino)-1,1-dioxo-1H-1.lambda(6).-[1,2,5]thiadiazol-3-ylamino]-butyric acid ethyl ester] | 37 | 1.17
7 | CCCCCCCCCCNC1=NS(=O)(=O)N=C1Nc1ccc(CC(C)NC[C@H](O)COc2cccc3[nH]c4ccccc4c23)cc1 (stereo partly drawn) [Compound 19, (2S)-1-(9H-Carbozol-4-yloxy)-3-{2-[4-(4-decylamino-1,1-dioxo-1H-1-.lambda(6).-[1,2,5]thiadiazol-3-ylamino)-phenyl]-1-methyl-ethylamino}-propan-2-ol] | – | 0.36
8 | CCCCCCCCCCNC1=NS(=O)(=O)N=C1Nc1ccc(CC(C)NC[C@H](O)COc2ccc(O)cc2)cc1 (stereo partly drawn) [Compound 25, 4-((2S)-3-{2-[4-(4-Decylamino-1,1-dioxo-1H-1(lambda(6))-[1,2,5]thiadiazol-3-ylamino)-phenyl]-1-methyl-ethylamino}-2-hydroxy-propoxy)-phenol] | 88 | 0.85
9 | CN(C)c1ccc(C2(CNC3=NS(=O)(=O)N=C3Nc3ccc(CC(C)(C)NC[C@H](O)COc4ccc(O)cc4)cc3)CCCC2)cc1 [Compound 7, 4-{[(2S)-3-({2-[4-({4-[({1-[4-(dimethylamino)phenyl]cyclopentyl}methyl)amino]1,1-dioxido-1,25-thiadiazol-3-yl}amino)phenyl]-1 1-dimethylethyl}amino)-2-hydroxypropyl]oxy}phenol] | 55 | 0.74
10 | CCCCCCCCNc1c(Nc2ccc(CC(C)NC[C@H](O)COc3ccc(O)cc3)cc2)c(=O)c1=O (stereo partly drawn) [Compound 14, 3-(4-{2-[(2S)-2-Hydroxy-3-(4-hydroxy-phenoxy)-propylamino]-propyl}-phenylamino)-4-octylamino-cyclobut-3-ene-1,2-dione] | 21 | 0.81
11 | CCOC(=O)CCCNC1=NS(=O)(=O)N=C1Nc1ccc(CC(C)NC[C@H](O)COc2ccc(OCc3ccccc3)cc2)cc1 (stereo partly drawn) [Compound 32, 4-[4-(4-{2-[(2S)-3-(4-benzyloxy-phenoxy)-2-hydroxy-propylamino]-propyl}-phenylamino)-1,1-Dioxo-1H-1(lambda(6))-[1,2,5]thiadiazol-3-ylamino]-butyric acid ethyl ester] | 90 | 0.62
12 | CC(C)(Cc1ccc(NC2=NS(=O)(=O)N=C2NCC(c2ccccc2)c2ccccc2)cc1)NC[C@H](O)COc1ccc(O)cc1 [Compound 29, 4-[(2S)-3-(2-{4-[4-(2,2-Diphenyl-ethylamino)-1,1-dioxo-1H-1(lambda(6))-[1,2,5]thiadiazol-3-ylamino]-phenyl}-1,1-dimethyl-ethylamino)-2-hydroxy-propoxy]l-phenol] | 14 | 0.89
13 | CCCCCCCCNC1=NS(=O)(=O)N=C1Nc1ccc(CC(C)(C)NC[C@H](O)COc2ccc(O)cc2)cc1 [Compound 4] | 68 | 1.10
14 | CN(C)c1ccc(C2(CNC3=NS(=O)(=O)N=C3Nc3ccc(CC(C)(C)NC[C@H](O)COc4ccc(OCc5ccccc5)cc4)cc3)CCCC2)cc1 [7 (step E), (2S)-1-(4-Benzyloxy-phenoxy)-3-{2-{4-(4-{[1-(4-dimethylamino-phenyl)-cyclopentylmethyl]-amino}-1,1-dioxo-1H-1(lambda(6))-[1,2,5]thiadiazol-3-ylamino)-phenyl]-1,1-dimethyl-ethylamino}-propan-2-ol] | 682 | 0.56
15 | CCCCCCCCNC1=NS(=O)(=O)N=C1Nc1ccc(CCNC[C@H](O)COc2ccc(OCc3ccccc3)cc2)cc1 [5 (step E), (2S)-1-(4-Benzyloxy-phenoxy)-3-{2-[4-(4-octylamino-1,1-dioxo-1H-1.lambda(6).-[1,2,5]thiadiazol-3-ylamino)-phenyl]ethylamino}-propan-2-ol] | 1390 | 0.15
16 | CN(C)c1ccc(C2(CNC3=NS(=O)(=O)N=C3Nc3ccc(CC(C)(C)NCC(O)c4ccc(O)c(NS(C)(=O)=O)c4)cc3)CCCC2)cc1 (stereo not drawn) [Compound 34, N-[5-(2-{2-[4-(4-{[1-(4-dimethylamino-phenyl)-cyclopentylmethyl]-amino}-1,1-dioxo-1H-1.lambda(6).-[1,2,5]thiadiazol-3-ylamino)-phenyl]-1,1-dimethyl-ethylamino}-1-hydroxy-ethyl)-2-hydroxy-phenyl]-methanesulfonamide] | 0.8 | 1.0
17 | CCCCCCCCCCNC1=NS(=O)(=O)N=C1Nc1ccc(CC(C)NC[C@H](O)COc2ccccc2)cc1 (stereo partly drawn) [Compound 20, (2S)-1-{2-[4-(4-Decylamino-1,1-dioxo-1H-1(lambda(6))-[1,2,5]thiadiazol-3-ylamino)-phenyl]-1-methyl-ethylamino}-3-phenoxy-propan-2-ol] | – | 0.39
